According to US20250032580A1, “USE OF ADNF POLYPEPTIDES IN THERAPY” (RAMOT AT TEL-AVIV UNIVERSITY LTD., priority 2021, published 2025):

Key:
Type in all cases: cell-based, mouse
[1] = tested on: differentiated N1E-115 cells; experiment: FRAP of mCherry-Tau (Tau-MT interaction)
Experimental: (§1) Cell culture—Mouse neuroblastoma NIE-115 cells were maintained in Dulbecco's modified Eagle's medium, 10% fetal bovine serum, 2 mM glutamine and 100 U ml—1 penicillin, […] ml—1 streptomycin (Biological Industries, Beit Haemek, Israel). The cells were incubated in 95% air/5% CO2 in a humidified incubator at 37° C.
(§2) Cell differentiation and co-transfection of overexpression plasmids—Cultured NIE-115 cells were plated on 35 mm dishes (81156, 60μ-Dish, Ibidi, Martinsried, Germany) at a concentration of 1.25×10^4 cells per dish and then were differentiated with reduced fetal bovine serum (2%) and DMSO (1.25%) containing medium for 5 days before transfection. 48 hrs before experiments N1E-115 cells were co-transfected with 1 μg EB3-RFP or mCherry-Tau (3R) plasmid with or without 2 μg of plasmids, coding to GFP conjugated to full-length human ADNP, or ADNP carried mutations. 1:3 ratios between total amount of transfected DNA and transfection reagent were used according to manufacture guidance (Lipofectamine2000, Thermo Fisher Scientific, Waltham, MA, USA) in all subsequent experiments.
Fluorescence recovery after photobleaching (FRAP)—Differentiated NIE-115 cells were transfected with mCherry-Tau with or without GFP-conjugated to full-length ADNP or mutated ADNP, and imaged 48 hrs after transfection. An ROI for photobleaching was drowned in the proximal cell branches. mCherry-Tau was bleached with a […], and fluorescence recovery was collected within wavelengths of 610-650 nm. 80 images were taken every 0.74 sec immediately after bleaching. After FRAP imaging all samples were also treated with NAP in final concentrations of 10^−12 M, and after 4 hrs time-lapse imaging was done again under the same conditions. FRAP imaging for assessment difference between NAP and SKIP (SEQ ID NO: 21) activity was performed after an hour of ZnCl2 treatment (400 μM final concentration; Sigma, Rehovot, Israel) with or without NAP/SKIP (10^−12 M final concentration). Fluorescence signals were quantified with Fiji, obtained data were normalized with easyFRAP [82, 83] and FRAP recovery curves were fitted by a one-phase exponential association function by GraphPad Prism6 (GraphPad Software, Inc., La Jolla, CA, USA) while samples with R^2<0.9 were excluded.
Next, the effect of full-length/truncated ADNP forms with or without NAP treatment on Tau-MT interaction was examined by fluorescence recovery after photobleaching (FRAP) (FIGS. 8A-C). FRAP was performed with mCherry-tagged Tau protein (FIG. 8A). […] Therefore, the immobile mCherry-Tau fraction reflects the rate of Tau association with MTs.

[2] = tested on: differentiated N1E-115 cells; experiment: Live imaging of EB3 comet-like structures (MT dynamics); conditions: 10^−12 M, 4 hrs
Experimental: as §1, §2
Live Imaging—48 hrs after transfection, differentiated NIE-115 cells (expressing EB3-RFP with or without GFP-conjugated to full-length ADNP or mutated ADNP) were incubated at 37° C. with a 5% CO2/95% air mixture in a thermostatic chamber placed on the stage of a Leica TCS SP5 confocal microscope (objective 100× (PL Apo) oil immersion, NA 1.4). Time-lapse images were automatically captured 3 sec during 1 min, using the Leica LAS AF software. After imaging all samples were also treated with NAP (SEQ ID NO: 2) or SKIP (SEQ ID NO: 21) in final concentrations of 10^−12 M, and after 4 hrs time-lapse imaging was done again under the same conditions. Data was collected and analyzed by Imaris software.
To evaluate the effect of ADNP truncated proteins on MT dynamics time-lapse imaging of EB3 comet-like structures formed by RFP-tagged EB3 proteins that bind to MT plus-ends was performed. Two parameters of EB3 activity were used to assess MT dynamics—track length and track speed of EB3 comets, which reflect the length of freshly growing MTs and the speed of MT assembly, respectively. Furthermore, the present inventors aimed to determine whether NAP (10^−12 M for 4 hrs) could prevent the deleterious effect of ADNP mutations.

N1E-115 cells = experiment: Polymerized vs. soluble tubulin assay; conditions: zinc 400 μM, 4 h, peptide 10^−12 M
Experimental: Polymerized vs. soluble tubulin assay—To quantify tubulin polymerization and Tau-MT association, a simple assay was performed as previously described. The cells grown to confluence in six-well plates were washed with MT buffer (80 mM PIPES pH 6.8, 1 mM MgCl^2, 2 mM EGTA, 5% Glycerol) and lysed at room temperature for 5 min through centrifugation (300 g), with 150 μl of MT buffer with 0.5% Triton X-100 to extract soluble (cytosolic) tubulin (S). The pelleted cells were rinsed once again with an equal volume of modified RIPA lysis buffer (50 mM Tris-HCL pH 7.4, 150 mM NaCl, 2 mM EGTA, 1% Triton X-100, 0.1% SDS, 0.1% sodium Deoxycholate) to collect the polymerized (cytoskeletal) tubulin (P). The cytosolic and cytoskeletal fractions were each mixed with sample buffer and heated at 95° C. for 5 min. An equal volume of each fraction was analyzed by immunoblotting with Tau, tubulin and actin antibodies, and the results following ECL development were quantified by densitometry (GelQuant.NET software provided by biochemlabsolutions(dot)com).
It is known that in the presence of extracellular zinc NAP protects MT against degradation by promoting Tau binding to the MT shaft. Polymerized vs. soluble tubulin assay was effected to compare protective activities of NAP and SKIP against MT degradation and Tau-MT dissociation (FIGS. 11F-G). After treatments with zinc (400 μM, 4 h) with and without NAP or SKIP (10^−12 M, 4 h) the cellular-tubulin pool was separated into polymerized and soluble tubulin fractions. The amount of Tau, tubulin, and actin was identified by immunoblotting (FIG. 11F), followed by densitometric quantification (FIG. 11G).

Compound | Tau immobile fraction in comparison to non-treated control ([1]; 400 μM, 1 h) | Efficacy in terms of MT-Tau interactions, as compared with NAP ([1]; summary of results) | Tau immobile fraction under zinc ([1]; zinc 400 μM, 1 h, together with peptide 10^−12 M) | Difference between effects of NAP and SKIP on EB3 track length and speed [2] | EB3 track length and speed compared to non-treated control ([2]; no ADNP plasmid) | Protection against Tau dissociation from MTs (N1E-115 cells) | Protection of polymerized tubulin against zinc-induced decay (N1E-115 cells)
[Cl-].[Cl-].[Zn+2] [zinc, ZnCl2, reference compound] | significantly attenuated |  |  |  |  |  | 
SKIP |  | reduced efficacy | prevented zinc adverse effect | no significant differences | increased EB3 track length and speed | only NAP exhibited protection | protected against zinc-induced decay
